Legend:
Assay type in all cases: functional
[1] = system: TK-10; assay: Cytotoxicity against human TK10 cells assessed as cell growth at 10 uM after 48 hrs by sulforhodamine B assay relative to control; conditions: TK-10, 48 h, read-out: Activity
[2] = system: TK-10; assay: Cytotoxicity against human TK10 cells assessed as growth inhibition after 48 hrs by sulforhodamine B assay; conditions: TK-10, 48 h
[3] = system: NCI-H460; assay: Cytotoxicity against human NCI-H460 cells assessed as cell growth at 0.01 uM after 48 hrs by sulforhodamine B assay relative to control; conditions: NCI-H460, 48 h, read-out: Activity
[4] = system: PC-3; assay: Cytotoxicity against human PC3 cells assessed as cell growth at 10 uM after 48 hrs by sulforhodamine B assay relative to control; conditions: PC-3, 48 h, read-out: Activity
[5] = system: M14; assay: Cytotoxicity against human M14 cells assessed as cell growth at 1 uM after 48 hrs by sulforhodamine B assay relative to control; conditions: M14, 48 h, read-out: Activity
[6] = system: HCC 2998; assay: Cytotoxicity against human HCC2998 cells assessed as cell growth at 10 uM after 48 hrs by sulforhodamine B assay relative to control; conditions: HCC 2998, 48 h, read-out: Activity
[7] = system: Malme-3M; assay: Cytotoxicity against human MALME-3M cells assessed as cell growth at 100 uM after 48 hrs by sulforhodamine B assay relative to control; conditions: read-out: Activity
[8] = system: HCT-15; assay: Cytotoxicity against human HCT15 cells assessed as cell growth at 1 uM after 48 hrs by sulforhodamine B assay relative to control; conditions: HCT-15, 48 h, read-out: Activity
[9] = system: ACHN; assay: Cytotoxicity against human ACHN cells assessed as cell growth at 10 uM after 48 hrs by sulforhodamine B assay relative to control; conditions: read-out: Activity
[10] = system: A498; assay: Cytotoxicity against human A498 cells assessed as cell growth at 0.1 uM after 48 hrs by sulforhodamine B assay relative to control; conditions: A498, 48 h, read-out: Activity
[11] = system: BT-549; assay: Cytotoxicity against human BT549 cells assessed as cell growth at 100 uM after 48 hrs by sulforhodamine B assay relative to control; conditions: BT-549, 48 h, read-out: Activity
[12] = system: OVCAR-8; assay: Cytotoxicity against human OVCAR8 cells assessed as cell growth at 0.01 uM after 48 hrs by sulforhodamine B assay relative to control; conditions: OVCAR-8, 48 h, read-out: Activity
[13] = system: NCI-H23; assay: Cytotoxicity against human NCI-H23 cells assessed as growth inhibition after 48 hrs by sulforhodamine B assay; conditions: NCI-H23, 48 h
[14] = system: A498; assay: Cytotoxicity against human A498 cells assessed as growth inhibition after 48 hrs by sulforhodamine B assay; conditions: A498, 48 h
[15] = system: KM12; assay: Cytotoxicity against human KM12 cells assessed as cell growth at 100 uM after 48 hrs by sulforhodamine B assay relative to control; conditions: KM12, 48 h, read-out: Activity
[16] = system: HCT-15; assay: Cytotoxicity against human HCT15 cells assessed as cell growth at 0.1 uM after 48 hrs by sulforhodamine B assay relative to control; conditions: HCT-15, 48 h, read-out: Activity
[17] = system: SW-620; assay: Cytotoxicity against human SW620 cells assessed as cell growth at 0.01 uM after 48 hrs by sulforhodamine B assay relative to control; conditions: SW-620, 48 h, read-out: Activity
[18] = system: HOP-62; assay: Cytotoxicity against human HOP62 cells assessed as growth inhibition after 48 hrs by sulforhodamine B assay; conditions: HOP-62, 48 h
[19] = system: TK-10; assay: Cytotoxicity against human TK10 cells assessed as cell growth at 0.01 uM after 48 hrs by sulforhodamine B assay relative to control; conditions: TK-10, 48 h, read-out: Activity
[20] = system: SK-MEL-28; assay: Cytotoxicity against human SK-MEL-28 cells assessed as cell growth at 0.1 uM after 48 hrs by sulforhodamine B assay relative to control; conditions: SK-MEL-28, 48 h, read-out: Activity
[21] = system: RPMI-8226; assay: Cytotoxicity against human RPMI8226 cells assessed as growth inhibition after 48 hrs by sulforhodamine B assay; conditions: RPMI-8226, 48 h
[22] = system: NCI/ADR-RES; assay: Cytotoxicity against human NCI/ADR-RES cells assessed as cell growth at 0.1 uM after 48 hrs by sulforhodamine B assay relative to control; conditions: read-out: Activity
[23] = system: MDA-MB-231; assay: Cytotoxicity against human MDA-MB-231 cells assessed as cell growth at 100 uM after 48 hrs by sulforhodamine B assay relative to control; conditions: MDA-MB-231, 48 h, read-out: Activity
[24] = system: MDA-MB-435; assay: Cytotoxicity against human MDA-MB-435 cells assessed as cell growth at 0.1 uM after 48 hrs by sulforhodamine B assay relative to control; conditions: MDA-MB-435, 48 h, read-out: Activity
[25] = system: PC-3; assay: Cytotoxicity against human PC3 cells assessed as cell growth at 100 uM after 48 hrs by sulforhodamine B assay relative to control; conditions: PC-3, 48 h, read-out: Activity
[26] = system: SK-MEL-5; assay: Cytotoxicity against human SK-MEL-5 cells assessed as growth inhibition after 48 hrs by sulforhodamine B assay; conditions: SK-MEL-5, 48 h
[27] = system: ACHN; assay: Cytotoxicity against human ACHN cells assessed as cell growth at 100 uM after 48 hrs by sulforhodamine B assay relative to control; conditions: read-out: Activity
[28] = system: MOLT-4; assay: Cytotoxicity against human MOLT4 cells assessed as cell growth at 100 uM after 48 hrs by sulforhodamine B assay relative to control; conditions: MOLT-4, 48 h, read-out: Activity
[29] = system: ACHN; assay: Cytotoxicity against human ACHN cells assessed as cell growth at 0.01 uM after 48 hrs by sulforhodamine B assay relative to control; conditions: read-out: Activity
[30] = system: DU-145; assay: Cytotoxicity against human DU145 cells assessed as cell growth at 1 uM after 48 hrs by sulforhodamine B assay relative to control; conditions: DU-145, 48 h, read-out: Activity
[31] = system: MDA-MB-468; assay: Cytotoxicity against human MDA-MB-468 cells assessed as cell growth at 1 uM after 48 hrs by sulforhodamine B assay relative to control; conditions: MDA-MB-468, 48 h, read-out: Activity
[32] = system: HT-29; assay: Cytotoxicity against human HT-29 cells assessed as cell growth at 0.1 uM after 48 hrs by sulforhodamine B assay relative to control; conditions: HT-29, 48 h, read-out: Activity
[33] = system: SNB-19; assay: Cytotoxicity against human SNB19 cells assessed as growth inhibition after 48 hrs by sulforhodamine B assay; conditions: SNB-19, 48 h
[34] = system: UO-31; assay: Cytotoxicity against human UO31 cells assessed as growth inhibition after 48 hrs by sulforhodamine B assay; conditions: UO-31, 48 h
[35] = system: SR; assay: Cytotoxicity against human SR cells assessed as cell growth at 0.1 uM after 48 hrs by sulforhodamine B assay relative to control; conditions: read-out: Activity
[36] = read-out: LC50 (the source's name)

`COc1ccc(-c2cc(/C=C/C(=O)c3ccc(OC)c(OC)c3)[nH]n2)cc1` gave a growth at 10 µM [1] of -59%, a GI50 [2] of 2.11 µM and an LC50 [2] of 8.78 µM. It also gave a TGI [2] of 4.31 µM, a growth at 0.01 µM [3] of 100% and a growth at 10 µM [4] of -61%. The growth at 1 µM [5] was 97%, the growth at 10 µM [6] was -68% and the growth at 100 µM [7] was -100%. It also gave a growth at 1 µM [8] of 65%, a growth at 10 µM [9] of -58% and a growth at 0.1 µM [10] of 79%. For the same compound, the growth at 100 µM [11] was -99%, the growth at 0.01 µM [12] was 93% and the GI50 [13] was 2.47 µM. The TGI [13] was 6.33 µM, the CC50 [13, 36] was 34.1 µM and the GI50 [14] was 1.42 µM. For the same compound, the LC50 [14] was 8.87 µM, the TGI [14] was 3.55 µM and the growth at 100 µM [15] was -79%. The growth at 0.1 µM [16] was 97%, the growth at 0.01 µM [17] was 99% and the GI50 [18] was 2.35 µM. For the same compound, the LC50 [18] was 35.3 µM, the TGI [18] was 6.17 µM and the growth at 0.01 µM [19] was 100%. The growth at 0.1 µM [20] was 98%, the GI50 [21] was 0.32 µM and the LC50 [21] was 8.16 µM. The TGI [21] was 1.33 µM, the growth at 0.1 µM [22] was 107% and the growth at 100 µM [23] was -86%. For the same compound, the growth at 0.1 µM [24] was 95%, the growth at 100 µM [25] was -90% and the GI50 [26] was 1.77 µM. The LC50 (concentration killing 50% of cells) [26] was 7.83 µM, the TGI [26] was 3.72 µM and the growth at 100 µM [27] was -98%. For the same compound, the growth at 100 µM [28] was -33%, the growth at 0.01 µM [29] was 100% and the growth at 1 µM [30] was 74%. It also gave a growth at 1 µM [31] of 61%, a growth at 0.1 µM [32] of 101% and a GI50 [33] of 1.88 µM. For the same compound, the TGI [33] was 5.28 µM, the CC50 [33, 36] was 19.6 µM and the GI50 [34] was 1.17 µM. For the same compound, the LC50 [34] was 5.1 µM, the TGI [34] was 2.44 µM and the growth at 0.1 µM [35] was 106%.

From ChEMBL document CHEMBL4138123, “Design, synthesis and biological evaluation of novel pyrazolochalcones as potential modulators of PI3K/Akt/mTOR pathway and inducers of apoptosis in breast cancer cells” (Eur J Med Chem, 2017)
